Counter-ions that a name gives are not always drawn.
Experiments:
guinea pig eosinophils = experiment: Inhibitory action on eosinophils (release of active oxygen from guinea pig eosinophils); assay type: cell-based; conditions: Cavia porcellus, Eosinophil, 5 min, PAF, luminol chemiluminescence for 5 minutes
Procedure: Inhibitory activity on eosinophil activation
(A) Preparation of eosinophils
Polymyxin B (produced by Sigma) was administered intraperitoneally into a guinea pig (Hartley, male, 6-week-old) at a dosage of 1 mg once every week for 6 to 8 weeks. After the final administration of polymyxin B. 50 ml of PBS (phosphate-buffered saline) was injected into the intraperitoneal cavity of the guinea pig, and cells were recovered. The cells were centrifuged at 800 rpm for 5 minutes and the abdomen infiltration cells were collected as precipitates and then suspended in 1 ml of 40% Ficoll (40% Ficoll (produced by Pharmacia), HBSS (Hanks' balanced salt solution) and layered on a Ficoll discontinuous density gradient (40 to 90%). It was centrifuged at 1500 rpm for 40 minutes, and the eosinophil fraction was recovered. In this operation, eosinophils of 99% or more purity were usually obtained. Further, the cells were washed twice with RPMI 1640 medium (10% BSA (bovine serum albumin available from Boehringer Mannheim), suspended again at a predetermined density, and used in the objective experiment.
(B) Inhibitory action on eosinophils (inhibitory action on release of active oxygen from guinea pig eosinophils)
The eosinophils (99% or more purity) obtained by the Ficoll density gradient method in (A) above were suspended at a cell density of 4×10^5 in a buffer solution (0.136 M sodium chloride, 2.7 mM potassium chloride, 1.8 mM calcium chloride, 1.0 mM magnesium chloride, 11.9 mM sodium hydrogen carbonate, 5.5 mM D-glucose, 5.0 mM HEPES, 0.36 mM sodium dihydrogen phosphate, pH 7.2). Each drug (2 μl) and 180 μl of the cell suspension were put to a 96-well multi-well plate (for chemiluminescence measurement, white type) previously kept at 37° C., and incubated at 37° C. for 10 minutes. After incubation, 20 μl of PAF (platelet-activating factor) (5×10^-6 M) and 20 μl of a luminol solution were added to it and immediately examined for its chemiluminescence (Luminoskan Labosystem). The chemiluminescence for 5 minutes were measured to calculate 50% inhibitory concentration (IC50: μM).

rat mast cells = experiment: Inhibitory action on degranulation of mast cells (histamine release from rat mast cells); assay type: cell-based; conditions: Mast cell; rat peritoneal mast cells, anti-IgE antibody, 37° C.
Procedure: Inhibitory action on degranulation of mast cells
(A) Preparation of mast cells
30 ml of mast cell buffer solution (150 mM sodium chloride, 3.7 mM potassium chloride, 3.0 mM disodium hydrogen phosphate, 3.5 mM sodium dihydrogen phosphate, 5.6 mM dextrose, pH 7.0) was injected into the abdomen of a rat(SD, male, 8 to 10 week-old), and intra peritoneal cavity cells were recovered and centrifuged at 800 rpm for 5 minutes, and then the abdomen infiltration cells were recovered as precipitates. The precipitated cells were further washed twice with the mast cell buffer solution, suspended again at a predetermined density, and used in the objective experiment.
(B) Inhibitory action on degranulation of mast cells (inhibitory action on histamine release from rat mast cells)
The mast cells obtained in the procedure in (A) above were suspended at 1×10^5 cells in the mast cell buffer solution and kept at 37° C. 2 μl of each drug and 200 μl of the cell suspension were added into a 1.5 ml test tube previously kept at 37° C. and incubated at 37° C. for 10 minutes. After incubation, 2 μl anti-IgE antibody (BETHYL Lab. Inc.) was added to it and further incubated at 37° C. for 15 minutes. After the end of the reaction, the reaction mixture was immediately cooled on ice and centrifuged at 4° C. at 4000 rpm for 5 minutes, and then the supernatant was stored. Histamine in the supernatant was modified with ortho-phthalaldehyde and measured by high performance liquid chromatography to determine 50% inhibitory concentration (IC50: μM).

| SMILES | IC50 (guinea pig eosinophils) [µM] | IC50 (rat mast cells) [µM] |
| --- | --- | --- |
| Nc1cnc(-c2ccccc2)n(CC(=O)NC(Cc2ccccc2)C(=O)C(=O)CCCn2ccccc2=O)c1=O (stereo not drawn) [Compound 73, 2-(5-Amino-6-oxo-2-phenyl-1,6-dihydropyrimidine-1-yl)-N-{2,3-dioxo-1-phenylmethyl-6-(2-oxo-1,2-dihydropyridine-1-yl)}hexylacetamide hydrochloride] | 3 |  |
| CC(=O)C(=O)C(Cc1cccc(F)c1)NC(=O)Cn1c(-c2ccccc2)ncc(N)c1=O (stereo not drawn) [Compound 52, 2-(5-Amino-6-oxo-2-phenyl-1,6-dihydropyrimidine-1-yl)-N-{1-(3-fluorophenyl)methyl-2,3-dioxo}butylacetamide] | 26 | 50 |
| Nc1cnc(-c2ccccc2)n(CC(=O)NC(Cc2ccccc2)C(=O)C(=O)CCCc2ccccc2)c1=O (stereo not drawn) [Compound 40] | 5.6 | 1.8 |
| CCOC(=O)CCCC(=O)C(=O)C(Cc1cccc(F)c1)NC(=O)Cn1c(-c2ccccc2)ncc(N)c1=O (stereo not drawn) [Compound 54] | 62 | 35 |
| CCCCC(=O)C(=O)C(Cc1ccccc1)NC(=O)Cn1c(-c2ccccc2)ncc(N)c1=O (stereo not drawn) [Compound 44] | 18 | 14 |

From US6271238A, “Acetamide derivatives and protease inhibitors” (Nippon Kayaku Kabushiki Kaisha, priority 1996, dated 2001)
